Results taken from paper PMC11571207, “Stereorandomized Oncocins with Preserved Ribosome Binding and Antibacterial Activity” (Journal of Medicinal Chemistry, 2024).
In brackets after ≈: the same amount, converted by molar mass. Non-standard residues stand in square brackets, D forms with d. Residues, ends and D or L forms follow the SMILES beside them. No end group written: not given here.

Tests used:
A. baumannii ATCC19606 = test: microbe, parasite or virus in culture; details: for MIC A. baumannii, 12.5% MHB / MIC A. baumannii, Full MHB: A. baumannii ATCC19606, 16–20 h at 37 °C; for MIC A. baumannii, 12.5% MHB: 12.5% Müller–Hinton medium; for MIC A. baumannii, Full MHB: full Müller–Hinton medium; for MIC A. baumannii ATCC19606: supplement CSV
Excerpt: (§1) We tested antibacterial effects against the Gram-negative bacteria Escherichia coli, Klebsiella pneumoniae, Pseudomonas aeruginosa, and Acinetobacter baumannii and the Gram-positive methicillin-resistant Staphylococcus aureus (MRSA).
(§2) Bacterial growth assay (Figure S1), transmission electron microscopy (Figure S6), serum stability assay (Figure S7), circular dichroism spectral recording (Figures S8 and S9), antimicrobial and hemolysis activity assays (MIC and MHC), and vesicle leakage assay were carried out as described in earlier publications.[43],[44]
(§3) Minimum inhibitory concentration assay
(§4) Antimicrobial activity was assayed against P. aeruginosa PAO1, K. pneumoniae NCTC418, E. coli W3110, A. baumannii ATCC 19606, methicillin-resistant S. aureus COL (MRSA), and for selected peptides on P. aeruginosa PA14 and the polymyxin-B-resistant derivative PA14 2P4, as well as the clinical isolates ZEM-1A and ZEM9A, K. pneumoniae OXA-48, S. aureus Newman, Enterobacter cloacae and Burkholderia cenocepacia. The minimal inhibitory concentration (MIC) was determined by using broth microdilution method. A colo ny of bacteria was picked and grown in Luria-Bertani (LB) medium overnight at 37°C. For E. coli BW25113 sbmA::kan the medium was supplemented with 25 mg/L of kanamycin. The next day, the culture was then regrown in LB medium to log phase (OD600 = 0.6 to 0.8), which lasted approximately 4 h, and diluted to an OD600 of 0.022 in the desired medium. Stock solutions of 1 mg/mL of the samples were prepared in sterilized milliQ water and diluted to the beginning concentration of 64 μg/mL in 300 μL Mueller Hinton (MH)-medium. The diluted samples were added to first well of 96-well microtiter plate (TPP, untreated, Faust Laborbedarf, AG, Schaffhausen) and diluted serially by ½. Finally, 4 μL of the bacterial suspension was inoculated into the sample solutions (150 μL/well) with a final inoculation of about 5∙10^5 CFU/mL. The plates were then incubated at 37°C for 15-18h. For each assay, sterility (broth only) and growth control (broth with bacterial inoculum, without antibiotics) were checked with two columns in the plate. The next day, 15 μL of 3-(4,5-dimethylthiazol-2-yl)-2,5-diphenyltetrazolium bromide (MTT) was added to each well of the plate, such a way that MIC was defined as the lowest concentration of the peptide that inhibited visible growth of the tested

S. aureus COL (MRSA) = test: microbe, parasite or virus in culture; details: for MIC S. aureus, 12.5% MHB / MIC S. aureus, Full MHB: S. aureus COL (MRSA), 16–20 h at 37 °C; for MIC S. aureus, 12.5% MHB: 12.5% Müller–Hinton medium; for MIC S. aureus, Full MHB: full Müller–Hinton medium; for MIC S. aureus COL (MRSA): supplement CSV
Excerpt: as §1, §2, §3, §4

K. pneumoniae NCTC 418 = test: microbe, parasite or virus in culture; details: for MIC K. pneumoniae, 12.5% MHB / MIC K. pneumoniae, Full MHB: K. pneumoniae NCTC 418, 16–20 h at 37 °C; for MIC K. pneumoniae, 12.5% MHB: 12.5% Müller–Hinton medium; for MIC K. pneumoniae, Full MHB: full Müller–Hinton medium; for MIC K. pneumoniae NCTC418: supplement CSV
Excerpt: as §1, §2, §3, §4

E. coli W3110 = test: microbe, parasite or virus in culture; details: for MIC E. coli, 12.5% MHB / MIC E. coli, Full MHB: E. coli W3110, 16–20 h at 37 °C, broth microdilution; for MIC E. coli, 12.5% MHB: 12.5% Müller–Hinton medium; for MIC E. coli, Full MHB: full Müller–Hinton medium; for MIC E. coli W3110: supplement CSV
Excerpt: as §1, §2, §3, §4

P. aeruginosa PAO1 = test: microbe, parasite or virus in culture; details: for MIC P. aeruginosa, 12.5% MHB / MIC P. aeruginosa, Full MHB: P. aeruginosa PAO1, 16–20 h at 37 °C; for MIC P. aeruginosa, 12.5% MHB: 12.5% Müller–Hinton medium; for MIC P. aeruginosa, Full MHB: full Müller–Hinton medium; for MIC P. aeruginosa PAO1: supplement CSV
Excerpt: as §1, §2, §3, §4

human red blood cells = test: Hemolysis assay, minimum hemolytic concentration; details: for Haemolysis on hRBC, MHC: 2.5% human red blood cells (final) in 10 mM phosphate, 150 mM NaCl, pH 7.4, 25 °C, 4 h, visual inspection; for MHC human red blood cells: supplement CSV

Row | Compound | MIC A. baumannii, 12.5% MHB (A. baumannii ATCC19606) [µg/mL] | MIC A. baumannii, Full MHB (A. baumannii ATCC19606) [µg/mL] | MIC A. baumannii ATCC19606 (A. baumannii ATCC19606; 12.5% MH pH 7.4) [µg/mL] | MIC A. baumannii ATCC19606 (A. baumannii ATCC19606; full MH pH 7.4) [µg/mL] | MIC S. aureus, 12.5% MHB (S. aureus COL (MRSA)) | MIC S. aureus, Full MHB (S. aureus COL (MRSA)) | MIC S. aureus COL (MRSA) (S. aureus COL (MRSA); 12.5% MH pH 7.4) [µg/mL] | MIC S. aureus COL (MRSA) (S. aureus COL (MRSA); full MH pH 7.4) [µg/mL] | MIC K. pneumoniae, 12.5% MHB (K. pneumoniae NCTC 418) [µg/mL] | MIC K. pneumoniae, Full MHB (K. pneumoniae NCTC 418) [µg/mL] | MIC K. pneumoniae NCTC418 (K. pneumoniae NCTC 418; 12.5% MH pH 7.4) [µg/mL] | MIC K. pneumoniae NCTC418 (K. pneumoniae NCTC 418; full MH pH 7.4) [µg/mL] | MIC E. coli, 12.5% MHB (E. coli W3110) [µg/mL] | MIC E. coli, Full MHB (E. coli W3110) [µg/mL] | MIC E. coli W3110 (E. coli W3110; 12.5% MH pH 7.4) [µg/mL] | MIC E. coli W3110 (E. coli W3110; full MH pH 7.4) [µg/mL] | MIC P. aeruginosa, 12.5% MHB (P. aeruginosa PAO1) [µg/mL] | MIC P. aeruginosa, Full MHB (P. aeruginosa PAO1) [µg/mL] | MIC P. aeruginosa PAO1 (P. aeruginosa PAO1; 12.5% MH pH 7.4) [µg/mL] | MIC P. aeruginosa PAO1 (P. aeruginosa PAO1; full MH pH 7.4) [µg/mL] | also measured
1 | CC[C@H](C)[C@H](NC(=O)[C@H](CCCNC(=N)N)NC(=O)[C@H](CCCNC(=N)N)NC(=O)[C@@H]1CCCN1C(=O)[C@@H]1CCCN1C(=O)[C@H](CCCNC(=N)N)NC(=O)[C@@H]1CCCN1C(=O)[C@H](CCCNC(=N)N)NC(=O)[C@@H]1CCCN1C(=O)[C@H](CC(C)C)NC(=O)[C@@H](Cc1ccc(O)cc1)NC(=O)[C@@H]1CCCN1C(=O)[C@@H]1CCCN1C(=O)[C@H](CCCCN)NC(=O)[C@H](CC(=O)O)NC(=O)[C@@H](N)C(C)C)C(=O)N[C@@H](Cc1ccc(O)cc1)C(=O)N[C@@H](CC(N)=O)C(=O)N[C@@H](CCCNC(=N)N)C(N)=O [DY6-Onc] (H-VDKPP[dY]LPRPRPPRRIYNR-NH2) | 16 (≈ 6.69 µM) | > 64 | 16 (≈ 6.69 µM) | >64 | >64 / 64 μg/mL | >64 / 64 μg/mL | 64 (≈ 26.8 µM) | >64 | 4 (≈ 1.67 µM) | 8 (≈ 3.35 µM) | 4 (≈ 1.67 µM) | 8 (≈ 3.35 µM) | 4 (≈ 1.67 µM) | 16 (≈ 6.69 µM) | 4 (≈ 1.67 µM) | 16 (≈ 6.69 µM) | 16 (≈ 6.69 µM) | > 64 | 16 (≈ 6.69 µM) | >64 | Haemolysis on hRBC, MHC (human red blood cells): >1000 µg/mL; MHC human red blood cells (human red blood cells): >1000 µg/mL
2 | VDKPPYLPRPRPPRRIYNR [sr11Cterm-Onc] (VDKPPYLPRPRPPRRIYNR-NH2; also: residues 9-19 stereorandomized (1:1 L/D mixture)) | 4 | 32 | 4 | 32 | >64 / 64 μg/mL | >64 / 64 μg/mL | 64 | >64 | 4 | 16 | 4 | 16 | 4 | 16 | 4 | 16 | 8 | > 64 | 8 | >64 | Haemolysis on hRBC, MHC (human red blood cells): >1000 µg/mL; MHC human red blood cells (human red blood cells): >1000 µg/mL
3 | CC[C@H](C)[C@H](NC(=O)[C@H](CCCNC(=N)N)NC(=O)[C@H](CCCNC(=N)N)NC(=O)[C@@H]1CCCN1C(=O)[C@@H]1CCCN1C(=O)[C@H](CCCNC(=N)N)NC(=O)[C@@H]1CCCN1C(=O)[C@@H](CCCNC(=N)N)NC(=O)[C@@H]1CCCN1C(=O)[C@H](CC(C)C)NC(=O)[C@H](Cc1ccc(O)cc1)NC(=O)[C@@H]1CCCN1C(=O)[C@@H]1CCCN1C(=O)[C@H](CCCCN)NC(=O)[C@H](CC(=O)O)NC(=O)[C@@H](N)C(C)C)C(=O)N[C@@H](Cc1ccc(O)cc1)C(=O)N[C@@H](CC(N)=O)C(=O)N[C@@H](CCCNC(=N)N)C(N)=O [DR9-Onc] (H-VDKPPYLP[dR]PRPPRRIYNR-NH2) | 8 (≈ 3.35 µM) | > 64 | 8 (≈ 3.35 µM) | >64 | >64 / >64 μg/mL | >64 / >64 μg/mL | >64 | >64 | 4 (≈ 1.67 µM) | 16 (≈ 6.69 µM) | 4 (≈ 1.67 µM) | 16 (≈ 6.69 µM) | 4 (≈ 1.67 µM) | 16 (≈ 6.69 µM) | 4 (≈ 1.67 µM) | 16 (≈ 6.69 µM) | 32 (≈ 13.4 µM) | > 64 | 32 (≈ 13.4 µM) | >64 | Haemolysis on hRBC, MHC (human red blood cells): >1000 µg/mL; MHC human red blood cells (human red blood cells): >1000 µg/mL
4 | VDKPPYLPRPRPPRRIYNR [sr6Cterm-Onc] (VDKPPYLPRPRPPRRIYNR-NH2; also: residues 14-19 stereorandomized (1:1 L/D mixture)) | 4 | 32 | 4 | 32 | > 16 µg/mL | > 64 µg/mL | >16 | >64 | 1 | 4 | 1 | 4 | 1 | 8 | 1 | 8 | 4 | 64 | 4 | 64 | Haemolysis on hRBC, MHC (human red blood cells): >1000 µg/mL; MHC human red blood cells (human red blood cells): >1000 µg/mL
5 | CC[C@H](C)[C@H](NC(=O)[C@H](CCCNC(=N)N)NC(=O)[C@H](CCCNC(=N)N)NC(=O)[C@@H]1CCCN1C(=O)[C@@H]1CCCN1C(=O)[C@H](CCCNC(=N)N)NC(=O)[C@@H]1CCCN1C(=O)[C@H](CCCNC(=N)N)NC(=O)[C@@H]1CCCN1C(=O)[C@H](CC(C)C)NC(=O)[C@H](Cc1ccc(O)cc1)NC(=O)[C@H]1CCCN1C(=O)[C@H]1CCCN1C(=O)[C@H](CCCCN)NC(=O)[C@H](CC(=O)O)NC(=O)[C@@H](N)C(C)C)C(=O)N[C@@H](Cc1ccc(O)cc1)C(=O)N[C@@H](CC(N)=O)C(=O)N[C@@H](CCCNC(=N)N)C(N)=O [DP45-Onc] (H-VDK[dP][dP]YLPRPRPPRRIYNR-NH2) | 16 (≈ 6.69 µM) | > 64 | 16 (≈ 6.69 µM) | >64 | >64 / >64 μg/mL | >64 / >64 μg/mL | >64 | >64 | > 16 | > 64 | >16 | >64 | 8 (≈ 3.35 µM) | 64 (≈ 26.8 µM) | 8 (≈ 3.35 µM) | 64 (≈ 26.8 µM) | > 16 | > 64 | >16 | >64 | Haemolysis on hRBC, MHC (human red blood cells): >1000 µg/mL; MHC human red blood cells (human red blood cells): >1000 µg/mL
